Patent US20220227709A1, “COMPOSITIONS AND METHODS FOR TREATING SCHISTOSOMA INFECTIONS” (THE BOARD OF REGENTS OF THE UNIVERSITY OF TEXAS SYSTEM, priority 2019, published 2022)

Experiments:
[1] = system: S. mansoni adult schistosomes; test: Schistosomiasis screening, adult worm killing (S. mansoni); format: cell-based, Schistosoma mansoni; conditions: for Kill % S. m: adult worms, final concentration 143 μM, 45 minutes incubation, washed, cultured 10-14 days, read day 14
Excerpt: (§1) Schistosomiasis screening methods Strains of S. mansoni, S. haematobium, and S. japonicum were maintained by passage through species-specific snail intermediate hosts (Biomphlaria glabrata, Bulinus truncatus, and Oncomelania hupensis, respectively) and Golden Syrian Hamsters as a definitive host. Definitive host animals were sacrificed in accordance with IACUC protocol (UTHSCSA IACUC Protocol #08039) by intraperitoneal injection using Fatal-Plus (Butler Animal Health, Ohio), a sodium pentobarbital solution, with 10% heparin added. The adult parasites were obtained by perfusion as previously described using 0.9% saline containing EDTA.^1 Derivatives were solubilized in DMSO and diluted to working concentration of 50 mM and added directly to each well of a 24-well plate within 2-24 hours after harvesting adult schistosomes from the hamsters at a final concentration of 143 μM. Each analog was tested in triplicate. DMSO, oxamniquine (OXA, the parent drug known to kill only S. mansoni), or Hycanthone (HC, a carcinogen known to kill S. mansoni and S. haematobium) were used as controls as needed. Drugs were incubated with the worms at 37° C., 5% CO2 for 45 minutes, mimicking physiological conditions. The worms were washed with plain media 3 times to remove any residual derivatives. Worms were then incubated in culture media as previously described for a period of 10-14 days. On day 14, the assay gives % worms alive as an efficacy data point. For comparison, Oxaminiquine scores 50% alive in this assay.

[2] = system: S. haematobium adult schistosomes; test: Schistosomiasis screening, adult worm killing (S. haematobium); format: cell-based, Schistosoma haematobium; conditions: adult worms, final concentration 143 μM, 45 minutes incubation, washed, cultured 10-14 days, read day 14
Excerpt: as §1

[3] = system: S. japonicum adult schistosomes; test: Schistosomiasis screening, adult worm killing (S. japonicum); format: cell-based, Schistosoma japonicum; conditions: adult worms, final concentration 143 μM, 45 minutes incubation, washed, cultured 10-14 days, read day 14
Excerpt: as §1

Structure (SMILES)	Kill % S. m [1]	also measured
O=[N+]([O-])c1cc(NCC2(Cc3cccc(C(F)(F)F)c3)CCN(Cc3c[nH]c4ccccc34)C2)ccc1CO (stereo not shown) [CIDD-0149830, (4-(((1-((1H-indol-3-yl)methyl)-3-(3-(trifluoromethyl)benzyl)pyrrolidin-3-yl)methyl)amino)-2-nitrophenyl)methanol]	100%	Kill % S. h [2]: 100%; Kill % S. j [3]: 100%
CN(C)CCNC(=O)c1cccc2c(N)c3cc(Cl)ccc3nc12 [CIDD-0150235]	60%	
Nc1c2ccccc2nc2c(C(=O)NCCNCCO)cccc12 [CIDD-0150236]	43%	
Cc1c2ccccc2nc2c(C(=O)NCCN(C)C)cccc12 [CIDD-0150237]	33%	
CN(C)CCCNC(=O)c1cccc2c(N)c3ccccc3nc12 [CIDD-0150238]	6%	
CCN(CC)CCNC(=O)c1cccc2c(N)c3ccccc3nc12 [CIDD-0150239]	36%	
Oc1cccc2c1ccc1c(F)c3ccccc3cc12 [CIDD-0150240]	20%	
Cc1c[nH]c2c1C13CC1CN(S(C)(=O)=O)C3=CC2=O (stereo not shown) [CIDD-0150241]	33%	
O[C@@H]1c2ccccc2-c2cc3ccccc3c(F)c2[C@H]1O [CIDD-0150242]	56%	
O=C(O)CCCn1c2ccccc2c(=O)c2ccccc21 [CIDD-0150302]	80%	Kill % S. h [2]: 20%; Kill % S. j [3]: 40%
O=S([O-])([O-])=S.O=S([O-])([O-])=S.[Ag+].[Na+].[Na+].[Na+] [CIDD-0150303]	100%	Kill % S. h [2]: 40%; Kill % S. j [3]: 100%
C=CCN(N=O)C(C)OC(C)=O (stereo not shown) [CIDD-0150326]	3.3%	
CC(=O)OC(C)N(N=O)C1CC1 (stereo not shown) [CIDD-0150327]	3.3%	
O=[N+]([O-])c1ccc2c3c1ccc1cccc(c13)[C@@H](O)[C@H]2O [CIDD-0150328]	16%	
O=[N+]([O-])c1ccc2c(O)cc3cccc4ccc1c2c43 [CIDD-0150329]	40%	
O=[N+]([O-])c1ccc2cc(O)c3cccc4ccc1c2c43 [CIDD-0150330]	10%	
Cc1nc(SC[C@H](N)C(=O)O)c(N)n1C [CIDD-0150331]	10%	
CC(=O)Nc1cnc(COC(N)=O)n1C [CIDD-0150332]	17%	
CCCS(=O)(=O)OCC [CIDD-0150333]	20%	
CCCCCS(=O)(=O)OCC [CIDD-0150334]	47%	
Cn1c([N+](=O)[O-])nc2c3ccccc3ccc21 [CIDD-0150605]	13%	
Cn1c([N+](=O)[O-])nc2ccc3ccccc3c21 [CIDD-0150606]	100%	Kill % S. h [2]: 85.7%
OCC(O)COc1ccccc1C1CCCC1 (stereo not shown) [CIDD-0150607]	50%	
O=Nc1ccc2ccc3cc4ccccc4c4ccc1c2c34 [CIDD-0150608]	93.3%	Kill % S. h [2]: 71.4%
c1cc2ccc3c4ccc5cccc(c(c1)c23)c54 [CIDD-0150609]	16.6%	
C[C@@H](O)[C@H]1C(=O)N2C(C(=O)O)=C(S[C@@H]3CN[C@H](C(=O)Nc4cccc(C(=O)O)c4)C3)[C@H](C)[C@H]12 [CIDD-0150610]	100%	Kill % S. h [2]: 100%; Kill % S. j [3]: 100%
CC(C)NCC1CCc2cc(CO)c([N+](=O)[O-])cc2N1 (stereo not shown) [Oxaminiquine, oxamniquine, reference compound]		% worms alive ([1]; day 14, control drug for comparison, species not given): 50%
